In patent US8952024B2, “Herbicidal pyrimidone derivatives” (E I du Pont de Nemours and Company, priority 2009, dated 2015):

Assays:
Experiment in all cases: Test B pre-/postemergence plant response
Assay type in all cases: in vivo
[1] = system: Surinam grass (Brachiaria decumbens)
Summary of the method: (§1)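 Response scores were assigned visually after 13 to 15 days in a greenhouse, comparing treated pots with controls on a 0–100 scale where 100 denotes complete control. Preemergence treatments went onto freshly seeded loam/sand soil; postemergence treatments onto plants 2 to 18 cm tall.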

[2] = system: blackgrass (Alopecurus myosuroides)
Summary of the method: as §1

[3] = system: corn (Zea mays)
Summary of the method: as §1

[4] = system: downy bromegrass (Bromus tectorum)
Summary of the method: as §1

[5] = system: goosegrass (Eleusine indica)
Summary of the method: as §1

[6] = system: green foxtail (Setaria viridis)
Summary of the method: as §1

[7] = system: johnsongrass (Sorghum halepense)
Summary of the method: as §1

[8] = system: kochia (Kochia scoparia)
Summary of the method: as §1

[9] = system: lambsquarters (Chenopodium album)
Summary of the method: as §1

[10] = system: large crabgrass (Digitaria sanguinalis)
Summary of the method: as §1

[11] = system: morningglory (Ipomoea coccinea)
Summary of the method: as §1

[12] = system: pigweed (Amaranthus retroflexus)
Summary of the method: as §1

[13] = system: soybean (Glycine max)
Summary of the method: as §1

[14] = system: velvetleaf (Abutilon theophrasti)
Summary of the method: as §1

[15] = system: wild oat (Avena fatua)
Summary of the method: as §1

[16] = system: woolly cupgrass (Eriochloa villosa)
Summary of the method: as §1

[17] = system: yellow nutsedge (Cyperus esculentus)
Summary of the method: as §1

[18] = 250 g ai/ha, Preemergence, 0 to 100 scale
[19] = Postemergence, 62 g ai/ha, scale 0 (no effect) to 100 (complete control), 13 to 15 days
[20] = Postemergence, 125 g ai/ha, visual rating after 13 to 15 days, scale 0 (no effect) to 100 (complete control)
[21] = Preemergence, 31 g ai/ha, scale 0 to 100 (0 no effect, 100 complete control)
[22] = Preemergence, 125 g ai/ha, 0 to 100 scale
[23] = Postemergence, 31 g ai/ha, scale 0 to 100 (0 no effect, 100 complete control)
[24] = Postemergence, 250 g ai/ha, scale 0 to 100
[25] = Preemergence, 62 g ai/ha, scale 0 to 100, 0 no effect, 100 complete control
[26] = 31 g ai/ha, postemergence, scale 0 to 100, 0 is no effect, 100 is complete control
[27] = 62 g ai/ha, postemergence, 0 is no effect, 100 is complete control, 13 to 15 days
[28] = Postemergence, 250 g ai/ha, scale 0 to 100 (0 no effect, 100 complete control)

Cc1ccc(-n2c(-c3cccc(Cl)c3)ncc(C(=O)C3=C(O)CCCC3=O)c2=O)cc1 [Compound 39]
Plant response rating, Surinam Grass [1, 18]: 15
Plant response rating, Surinam Grass [1, 19]: 65
Plant response rating, Surinam Grass [1, 20]: 65
Plant response rating, Surinam Grass [1, 21]: 0
Surinam Grass plant response rating [1, 22]: 10
Plant response rating, Blackgrass [2, 18]: 0
Plant response rating, Blackgrass [2, 23]: 0
Plant response rating, Blackgrass [2, 19]: 0
Plant response rating, Blackgrass [2, 20]: 0
Blackgrass plant response rating [2, 24]: 20
Plant response rating, Blackgrass [2, 21]: 0
Plant response rating, Blackgrass [2, 25]: 0
Blackgrass plant response rating [2, 22]: 0
Plant response rating, Corn [3, 18]: 0
Plant response rating, Corn [3, 23]: 25
Plant response rating, Corn [3, 19]: 45
Plant response rating, Corn [3, 20]: 45
Corn plant response rating [3, 24]: 65
Plant response rating, Corn [3, 21]: 0
Plant response rating, Corn [3, 25]: 0
Corn plant response rating [3, 22]: 0
Plant response rating, Bromegrass, Downy [4, 18]: 0
Plant response rating, Bromegrass, Downy [4, 23]: 0
Plant response rating, Bromegrass, Downy [4, 19]: 0
Plant response rating, Bromegrass, Downy [4, 20]: 0
Bromegrass, Downy plant response rating [4, 24]: 0
Plant response rating, Bromegrass, Downy [4, 21]: 0
Plant response rating, Bromegrass, Downy [4, 25]: 0
Bromegrass, Downy plant response rating [4, 22]: 0
Plant response rating, Goosegrass [5, 18]: 100
Plant response rating, Goosegrass [5, 19]: 55
Plant response rating, Goosegrass [5, 20]: 65
Goosegrass plant response rating [5, 24]: 75
Plant response rating, Goosegrass [5, 21]: 85
Goosegrass plant response rating [5, 22]: 100
Plant response rating, Foxtail, Green [6, 18]: 100
Plant response rating, Foxtail, Green [6, 23]: 80
Plant response rating, Foxtail, Green [6, 19]: 80
Plant response rating, Foxtail, Green [6, 20]: 90
Foxtail, Green plant response rating [6, 24]: 90
Foxtail, Green plant response rating [6, 22]: 75
Plant response rating, Johnsongrass [7, 18]: 75
Plant response rating, Johnsongrass [7, 19]: 65
Plant response rating, Johnsongrass [7, 20]: 90
Johnsongrass plant response rating [7, 24]: 98
Plant response rating, Johnsongrass [7, 21]: 0
Plant response rating, Johnsongrass [7, 25]: 60
Johnsongrass plant response rating [7, 22]: 65
Plant response rating, Kochia [8, 19]: 45
Plant response rating, Kochia [8, 20]: 60
Kochia plant response rating [8, 24]: 95
Plant response rating, Lambsquarters [9, 18]: 100
Plant response rating, Lambsquarters [9, 19]: 95
Plant response rating, Lambsquarters [9, 20]: 100
Lambsquarters plant response rating [9, 24]: 100
Plant response rating, Lambsquarters [9, 21]: 100
Plant response rating, Lambsquarters [9, 25]: 100
Lambsquarters plant response rating [9, 22]: 100
Plant response rating, Crabgrass, Large [10, 18]: 100
Plant response rating, Crabgrass, Large [10, 23]: 75
Plant response rating, Crabgrass, Large [10, 19]: 80
Plant response rating, Crabgrass, Large [10, 20]: 85
Crabgrass, Large plant response rating [10, 24]: 90
Plant response rating, Crabgrass, Large [10, 21]: 55
Plant response rating, Crabgrass, Large [10, 25]: 95
Crabgrass, Large plant response rating [10, 22]: 100
Plant response rating, Morningglory [11, 18]: 100
Plant response rating, Morningglory [11, 19]: 75
Plant response rating, Morningglory [11, 20]: 75
Plant response rating, Morningglory [11, 21]: 0
Plant response rating, Morningglory [11, 25]: 0
Morningglory plant response rating [11, 22]: 15
Plant response rating, Pigweed [12, 18]: 100
Plant response rating, Pigweed [12, 19]: 100
Plant response rating, Pigweed [12, 20]: 100
Plant response rating, Pigweed [12, 21]: 90
Pigweed plant response rating [12, 22]: 100
Plant response rating, Soybean [13, 18]: 0
Plant response rating, Soybean [13, 19]: 95
Plant response rating, Soybean [13, 20]: 98
Plant response rating, Soybean [13, 21]: 0
Soybean plant response rating [13, 22]: 0
Plant response rating, Velvetleaf [14, 18]: 98
Plant response rating, Velvetleaf [14, 19]: 80
Plant response rating, Velvetleaf [14, 20]: 80
Plant response rating, Velvetleaf [14, 21]: 15
Velvetleaf plant response rating [14, 22]: 75
Plant response rating, Oat, Wild [15, 18]: 0
Plant response rating, Oat, Wild [15, 19]: 20
Plant response rating, Oat, Wild [15, 20]: 30
Plant response rating, Oat, Wild [15, 21]: 0
Oat, Wild plant response rating [15, 22]: 0
Plant response rating, Cupgrass, Woolly [16, 18]: 10
Plant response rating, Cupgrass, Woolly [16, 23]: 65
Plant response rating, Cupgrass, Woolly [16, 19]: 85
Plant response rating, Cupgrass, Woolly [16, 20]: 85
Cupgrass, Woolly plant response rating [16, 24]: 90
Plant response rating, Cupgrass, Woolly [16, 21]: 0
Plant response rating, Cupgrass, Woolly [16, 25]: 0
Cupgrass, Woolly plant response rating [16, 22]: 0
Plant response rating, Nutsedge, Yellow [17, 18]: 10
Plant response rating, Nutsedge, Yellow [17, 19]: 0
Plant response rating, Nutsedge, Yellow [17, 20]: 15
Plant response rating, Nutsedge, Yellow [17, 21]: 0
Nutsedge, Yellow plant response rating [17, 22]: 0

O=C1CCCC(O)=C1C(=O)c1cnc(-c2ccc(Br)cc2)n(-c2ccccc2)c1=O [Compound 70]
Plant response rating, Surinam Grass [1, 26]: 65
Surinam Grass plant response rating (0 to 100 scale) [1, 27]: 65
Plant response rating, Surinam Grass [1, 20]: 95
Plant response rating, Surinam Grass [1, 28]: 100
Plant response rating, Blackgrass [2, 26]: 30
Blackgrass plant response rating (0 to 100 scale) [2, 27]: 35
Plant response rating, Blackgrass [2, 20]: 35
Plant response rating, Blackgrass [2, 28]: 50
Plant response rating, Corn [3, 26]: 15
Corn plant response rating (0 to 100 scale) [3, 27]: 35
Plant response rating, Corn [3, 20]: 60
Plant response rating, Corn [3, 28]: 75
Plant response rating, Bromegrass, Downy [4, 26]: 10
Bromegrass, Downy plant response rating (0 to 100 scale) [4, 27]: 50
Plant response rating, Bromegrass, Downy [4, 20]: 70
Plant response rating, Bromegrass, Downy [4, 28]: 70
Plant response rating, Goosegrass [5, 26]: 75
Goosegrass plant response rating (0 to 100 scale) [5, 27]: 85
Plant response rating, Goosegrass [5, 20]: 85
Plant response rating, Goosegrass [5, 28]: 95
Plant response rating, Foxtail, Green [6, 26]: 80
Foxtail, Green plant response rating (0 to 100 scale) [6, 27]: 85
Plant response rating, Foxtail, Green [6, 20]: 98
Plant response rating, Foxtail, Green [6, 28]: 98
Plant response rating, Johnsongrass [7, 26]: 65
Johnsongrass plant response rating (0 to 100 scale) [7, 27]: 70
Plant response rating, Johnsongrass [7, 20]: 80
Plant response rating, Johnsongrass [7, 28]: 98
Plant response rating, Kochia [8, 26]: 65
Kochia plant response rating (0 to 100 scale) [8, 27]: 65
Plant response rating, Kochia [8, 20]: 75
Plant response rating, Kochia [8, 28]: 98
Plant response rating, Lambsquarters [9, 26]: 85
Lambsquarters plant response rating (0 to 100 scale) [9, 27]: 98
Plant response rating, Lambsquarters [9, 20]: 100
Plant response rating, Lambsquarters [9, 28]: 100
Plant response rating, Crabgrass, Large [10, 26]: 80
Crabgrass, Large plant response rating (0 to 100 scale) [10, 27]: 90
Plant response rating, Crabgrass, Large [10, 20]: 95
Plant response rating, Crabgrass, Large [10, 28]: 100
Plant response rating, Morningglory [11, 26]: 98
Morningglory plant response rating (0 to 100 scale) [11, 27]: 100
Plant response rating, Morningglory [11, 20]: 100
Plant response rating, Morningglory [11, 28]: 100
Plant response rating, Pigweed [12, 26]: 85
Pigweed plant response rating (0 to 100 scale) [12, 27]: 98
Plant response rating, Pigweed [12, 20]: 98
Plant response rating, Pigweed [12, 28]: 100
Plant response rating, Soybean [13, 26]: 75
Soybean plant response rating (0 to 100 scale) [13, 27]: 75
Plant response rating, Soybean [13, 20]: 95
Plant response rating, Soybean [13, 28]: 98
Plant response rating, Velvetleaf [14, 26]: 75
Velvetleaf plant response rating (0 to 100 scale) [14, 27]: 80
Plant response rating, Velvetleaf [14, 20]: 100
Plant response rating, Velvetleaf [14, 28]: 100
Plant response rating, Oat, Wild [15, 26]: 55
Oat, Wild plant response rating (0 to 100 scale) [15, 27]: 70
Plant response rating, Oat, Wild [15, 20]: 90
Plant response rating, Oat, Wild [15, 28]: 95
Plant response rating, Cupgrass, Woolly [16, 26]: 45
Cupgrass, Woolly plant response rating (0 to 100 scale) [16, 27]: 65
Plant response rating, Cupgrass, Woolly [16, 20]: 90
Plant response rating, Cupgrass, Woolly [16, 28]: 90
Plant response rating, Nutsedge, Yellow [17, 26]: 10
Nutsedge, Yellow plant response rating (0 to 100 scale) [17, 27]: 15
Plant response rating, Nutsedge, Yellow [17, 20]: 40
Plant response rating, Nutsedge, Yellow [17, 28]: 60
